Experimental findings from ChEMBL document CHEMBL5608212, “N-acylbenzimidazoles as selective Acylators of the catalytic cystein of the coronavirus 3CL protease” (Eur J Med Chem, 2024) are described below.

Activity calls are given as the source filed them.

A word on the EC50: it is the midpoint of the concentration-response curve. A lower EC50 goes with greater potency. In general, pIC50 refers to the negative decadic logarithm of the IC50, by convention in mol/L. As a reminder, the ΔTm is the shift of the melting midpoint relative to a reference. For orientation: half-life means the time needed for the level to fall by half in the phase considered.

Data set [1] addresses T1, Replicase polyprotein 1ab (Severe acute respiratory syndrome coronavirus 2, UniProt P0DTD1). In words: Inhibition of SARS-CoV-2 3CLpro using Dabcyl-KTSAVLQSGFRKM-Glu(Edans) as substrate preincubated for 60 mins in presence of GSH followed by substrate addition and measured after 30 mins by FRET assay.
The target of data set [2] is Replicase polyprotein 1ab (Severe acute respiratory syndrome coronavirus 2) (UniProt P0DTD1). The data set can be described thus: Binding affinity to 2H,15N-labelled SARS-CoV-2 3CLpro substrate binding pocket assessed as chemical shift perturbations at interface of domains I and II at 500 uM by 2D 1H,15N-HSQC NMR analysis.
In data set [3] the target is T1, Replicase polyprotein 1ab. The data set can be described thus: Inhibition of SARS-CoV-2 3CLpro using Dabcyl-KTSAVLQSGFRKM-Glu(Edans) as substrate preincubated for 1 hrs in presence of 2 mM GSH followed by substrate addition and measured after 30 mins by FRET assay. The conditions noted are these: read-out: IC50.
Data set [4] can be described thus: Inhibition of human cathepsin 1 using QXL520/HiLyteFlour 488 as substrate preincubated for 60 mins and measured after 30 mins by fluorescence based assay.
Data set [5] deals with T1, Replicase polyprotein 1ab. In words: Inhibition of SARS-CoV-2 3CLpro using Dabcyl-KTSAVLQSGFRKM-Glu(Edans) as substrate preincubated for 30 mins followed by substrate addition and measured after 30 mins by FRET assay.
The subject of the next data set is Human coronavirus 229E. In words: Antiviral activity against HCoV-229E expressing renilla luciferase reporter gene infected in human Huh-7 cells pre-infected […] for 1 hr followed by compound addition and measured after 6 hrs by luciferase based assay. Format: functional, organism-based. (Reporter assays use an easily measured gene product as a stand-in for the process of interest.)

For data set [6], the target named is Replicase polyprotein 1ab (Human coronavirus 229E, UniProt P0C6X1). In words: Inhibition of hCoV-229E 3CLpro using Dabcyl-KTSAVLQSGFRKM-Glu(Edans) as substrate preincubated 1 hr in presence of 2 mM GSH followed by substrate addition and measured after 30 mins by FRET assay.
Chain of Replicase polyprotein 1ab (Human coronavirus 229E, UniProt P0C6X1) (P0C6X1 2966-3267 limits assumed): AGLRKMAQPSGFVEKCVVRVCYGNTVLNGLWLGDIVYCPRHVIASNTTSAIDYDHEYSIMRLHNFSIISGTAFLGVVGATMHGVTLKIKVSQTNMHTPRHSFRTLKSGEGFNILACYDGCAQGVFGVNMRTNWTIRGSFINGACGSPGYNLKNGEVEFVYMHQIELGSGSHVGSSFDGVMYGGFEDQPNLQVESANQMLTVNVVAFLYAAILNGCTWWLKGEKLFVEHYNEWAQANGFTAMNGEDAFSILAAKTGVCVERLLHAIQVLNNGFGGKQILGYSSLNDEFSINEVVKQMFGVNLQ
Data set [7] is described as follows: Inhibition of C-terminal 6-His tagged recombinant SARS-CoV 3CLpro (Ser1 to Gln306 residues) extracted from Escherichia coli using Dabcyl-KTSAVLQSGFRKM-Glu(Edans) as substrate preincubated 1 hr in presence of 2 mM GSH followed by substrate addition and measured after 30 mins by FRET assay. Set-up: species or system Severe acute respiratory syndrome-related coronavirus.

Data set [8] addresses T2, Calpain-1 catalytic subunit (Homo sapiens, UniProt P07384).
T2 sequence (P07384 whole entry): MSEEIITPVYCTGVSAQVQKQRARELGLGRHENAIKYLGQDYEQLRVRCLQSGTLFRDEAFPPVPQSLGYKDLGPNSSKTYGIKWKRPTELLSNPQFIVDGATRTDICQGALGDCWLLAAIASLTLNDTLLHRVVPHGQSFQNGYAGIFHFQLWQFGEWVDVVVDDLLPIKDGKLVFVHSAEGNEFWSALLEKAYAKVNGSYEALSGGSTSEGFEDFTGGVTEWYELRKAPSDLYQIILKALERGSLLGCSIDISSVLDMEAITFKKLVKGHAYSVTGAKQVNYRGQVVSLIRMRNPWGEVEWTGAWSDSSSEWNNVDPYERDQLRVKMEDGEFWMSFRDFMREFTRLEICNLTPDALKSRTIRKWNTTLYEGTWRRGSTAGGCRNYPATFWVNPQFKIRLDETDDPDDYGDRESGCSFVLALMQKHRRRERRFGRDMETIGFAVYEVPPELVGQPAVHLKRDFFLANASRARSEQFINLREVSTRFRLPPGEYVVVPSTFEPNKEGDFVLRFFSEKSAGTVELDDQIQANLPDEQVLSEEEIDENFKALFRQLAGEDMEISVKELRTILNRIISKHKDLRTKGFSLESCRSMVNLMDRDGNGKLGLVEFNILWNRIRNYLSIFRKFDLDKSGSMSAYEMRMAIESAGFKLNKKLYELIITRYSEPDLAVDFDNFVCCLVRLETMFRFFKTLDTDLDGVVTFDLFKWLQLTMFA
The data set can be described thus: Inhibition of human calpain 1 using (DABCYL)-TPLKSPPPSPR-(EDANS) as substrate incubated for 30 mins in presence of calcium ions and GSH and measured after 30 mins by fluorescence based assay.

Data set [9] deals with Replicase polyprotein 1ab (Severe acute respiratory syndrome coronavirus 2) (UniProt P0DTD1). In words: Binding affinity to SARS-CoV-2 3CLpro assessed as change in melting temperature at 40 uM measured after 30 mins by SYPRO Orange staining based thermal shift assay.
For data set [10], the target named is T1, Replicase polyprotein 1ab. In words: Inhibition of SARS-CoV-2 3CLpro using Dabcyl-KTSAVLQSGFRKM-Glu(Edans) as substrate preincubated for 60 mins in absence of GSH followed by substrate addition and measured after 30 mins by FRET assay.
The nature of data set [11]: Inhibition of MERS-CoV 3CLpro using Dabcyl-KTSAVLQSGFRKM-Glu(Edans) as substrate preincubated 1 hr in presence of 2 mM GSH followed by substrate addition and measured after 30 mins by FRET assay. Set-up: species or system Middle East respiratory syndrome-related coronavirus.
Data set [12] is described as follows: GSH reactivity in HEPES buffer at pH 7.4 assessed as half life at 1 uM. To be noted: glutathione (GSH) in HEPES buffer. It counts as ADME.
The target in data set [13] is Replicase polyprotein 1ab (Severe acute respiratory syndrome coronavirus 2) (UniProt P0DTD1). In words: Reversible inhibition of SARS-CoV-2 3CLpro using Dabcyl-KTSAVLQSGFRKM-Glu(Edans) as substrate at 10 times IC50 preincubated for 1 hr followed by 100-fold dilution to 0.1 times IC50 with substrate solution by jump dilution assay.
In another data set the test system is SARS-CoV-2. In words: microbe, parasite or virus in culture. To be noted: Severe acute respiratory syndrome coronavirus 2, Vero.

For `CSc1nc2cc3c(cc2n1C(=O)c1ccc(C)cc1)OCCO3`, the IC50 in data set [1] (read-out: IC50) is 390 nM; in [3], 140 nM; in data set [4], more than 100000 nM; in data set [5], 140 nM; in data set [6], 190 nM; in [7], 1700 nM. The IC50 is more than 100000 nM in data set [8], 380 nM in data set [10] (read-out: IC50) and 2500 nM in data set [11]. Besides, the result in data set [2] was Active. The same compound had an EC50 in the data set with Human coronavirus 229E of 7300 nM. The pIC50 amounted to 5.77 in data set [7] and 5.6 in [11]. Moreover, the ΔTm in data set [9] was found to be 1.47 °C.
`CSc1nc2cc3c(cc2n1C(=O)c1ccc(C)cc1)OCO3`: the IC50 in data set [1] (read-out: pIC50 (converted)) was 120 nM; in [3] it was 70 nM; in data set [4] it was more than 100000 nM; in data set [6] it was 750 nM; in [7], 150 nM; in [8] it was more than 100000 nM. Further, the IC50 in [10] (read-out: pIC50 (converted)) was 85.1 nM; in [11], 990 nM. The half-life at 1 µM in data set [12] is 16 min. In addition, the inhibition result in data set [13] was “Active”. For the same compound, the values for the EC50 with Human coronavirus 229E and with SARS-CoV-2 were 4800 nM and 3100 nM, respectively. The pIC50 turned out to be 6.82 in data set [7] and 6.01 in data set [11].
